# Assay: Metabolic stability in mouse liver microsomes
# Type: ADME, Microsome
row,Structure (SMILES),Stability [nmol/min/mg]
1,Cc1cc(N2CCOCC2)cc2[nH]c(-c3c(NC[C@@H](O)c4cccc(Cl)c4)cc[nH]c3=O)nc12,0.1
2,COCCOC(=O)N1CCN(C2CCN(c3cc(C)c4nc(-c5c(NC[C@@H](O)c6cccc(Cl)c6)cc[nH]c5=O)[nH]c4c3)CC2)CC1,< 0.1
3,Cc1cc(N2CCC(N3CCN(C)CC3)CC2)cc2[nH]c(-c3c(NC[C@@H](O)c4cccc(Cl)c4)cc[nH]c3=O)nc12,< 0.1
4,Cc1cc(N2CCC(N3CCN(C(=O)N4CCN(C)CC4)CC3)CC2)cc2[nH]c(-c3c(NC[C@@H](O)c4cccc(Cl)c4)cc[nH]c3=O)nc12,< 0.1
5,Cc1cc(N2CCC(N3CCN(C(=O)N4CCOCC4)CC3)CC2)cc2[nH]c(-c3c(NC[C@@H](O)c4cccc(Cl)c4)cc[nH]c3=O)nc12,< 0.1
6,Cc1cc(N2CCC(NC(=O)C3CC3)CC2)cc2[nH]c(-c3c(NC[C@@H](O)c4cccc(Cl)c4)cc[nH]c3=O)nc12,0.1
7,COCCOC1CCN(c2cc(C)c3nc(-c4c(NC[C@@H](O)c5cccc(Cl)c5)cc[nH]c4=O)[nH]c3c2)CC1,0.1
8,Cc1cc(N2CCC(OCCO)CC2)cc2[nH]c(-c3c(NC[C@@H](O)c4cccc(Cl)c4)cc[nH]c3=O)nc12,> 0.2
9,Cc1cc(N2CCC3(CC2)OCCO3)cc2[nH]c(-c3c(NC[C@@H](O)c4cccc(Cl)c4)cc[nH]c3=O)nc12,0.1
10,Cc1cc(N2CCC(N3CCOCC3)CC2)cc2[nH]c(-c3c(NC[C@@H](O)c4cccc(Cl)c4)cc[nH]c3=O)nc12,0.1
11,COCC(=O)N1CCN(C2CCN(c3cc(C)c4nc(-c5c(NC[C@@H](O)c6cccc(Cl)c6)cc[nH]c5=O)[nH]c4c3)CC2)CC1,< 0.1
12,Cc1cc(N2CCC(N3C[C@@H](C)O[C@@H](C)C3)CC2)cc2[nH]c(-c3c(NC[C@@H](O)c4cccc(Cl)c4)cc[nH]c3=O)nc12,< 0.1
13,COCCOCC(=O)N1CCN(C2CCN(c3cc(C)c4nc(-c5c(NC[C@@H](O)c6cccc(Cl)c6)cc[nH]c5=O)[nH]c4c3)CC2)CC1,< 0.1
14,Cc1cc(N2CCC(N3CCN(C(=O)OCCO)CC3)CC2)cc2[nH]c(-c3c(NC[C@@H](O)c4cccc(Cl)c4)cc[nH]c3=O)nc12,< 0.1
15,COC(=O)N1CCN(C2CCN(c3cc(C)c4nc(-c5c(NC[C@@H](O)c6cccc(Cl)c6)cc[nH]c5=O)[nH]c4c3)CC2)CC1,< 0.1
16,CC(=O)N1CCN(C2CCN(c3cc(C)c4nc(-c5c(NC[C@@H](O)c6cccc(Cl)c6)cc[nH]c5=O)[nH]c4c3)CC2)CC1,< 0.1
17,Cc1cc(N2CCC(N3CCN(C(=O)C4CC4)CC3)CC2)cc2[nH]c(-c3c(NC[C@@H](O)c4cccc(Cl)c4)cc[nH]c3=O)nc12,< 0.1
18,COC1CCN(c2cc(C)c3nc(-c4c(NC[C@@H](O)c5cccc(Cl)c5)cc[nH]c4=O)[nH]c3c2)CC1,> 0.2
19,Cc1cc(N2CCC(O)CC2)cc2[nH]c(-c3c(NC[C@@H](O)c4cccc(Cl)c4)cc[nH]c3=O)nc12,0.1
20,COC(=O)NC1CCN(c2cc(C)c3nc(-c4c(NC[C@@H](O)c5cccc(Cl)c5)cc[nH]c4=O)[nH]c3c2)CC1,0.1

# Source: ChEMBL document CHEMBL1155068, “Balancing oral exposure with Cyp3A4 inhibition in benzimidazole-based IGF-IR inhibitors” (Bioorg Med Chem Lett, 2008)
